This assay deals with T1, GRK2 (Homo sapiens, UniProt P25098).
T1 sequence (P25098 1-689): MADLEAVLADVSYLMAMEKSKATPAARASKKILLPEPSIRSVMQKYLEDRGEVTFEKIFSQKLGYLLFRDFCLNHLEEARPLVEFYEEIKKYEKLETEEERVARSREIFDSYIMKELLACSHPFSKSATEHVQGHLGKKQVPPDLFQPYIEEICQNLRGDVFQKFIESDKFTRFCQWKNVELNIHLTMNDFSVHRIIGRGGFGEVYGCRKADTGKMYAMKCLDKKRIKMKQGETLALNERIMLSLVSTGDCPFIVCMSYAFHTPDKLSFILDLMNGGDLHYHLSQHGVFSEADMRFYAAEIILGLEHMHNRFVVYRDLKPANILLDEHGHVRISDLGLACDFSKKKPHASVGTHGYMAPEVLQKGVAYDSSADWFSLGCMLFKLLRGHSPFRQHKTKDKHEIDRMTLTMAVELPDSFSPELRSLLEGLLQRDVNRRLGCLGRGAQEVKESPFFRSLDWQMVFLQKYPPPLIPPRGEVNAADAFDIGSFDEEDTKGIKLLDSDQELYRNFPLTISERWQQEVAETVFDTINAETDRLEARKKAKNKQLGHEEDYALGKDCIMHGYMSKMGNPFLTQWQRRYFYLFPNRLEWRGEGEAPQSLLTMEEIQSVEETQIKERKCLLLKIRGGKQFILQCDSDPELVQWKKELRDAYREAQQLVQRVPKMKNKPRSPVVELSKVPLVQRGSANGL
The experiment in a line: hGRK2 LANCE Ultra In Vitro Assay. It counts as biochemical. Particulars: Biological Example 1 GRK2 Lancer IC50 (μM), 10 nM GRK2; 30 or 600 μM ATP (not stated which); multiple measurements listed individually. Here is the method: hGRK2 LANCE Ultra In Vitro Assay
G-protein coupled receptor kinases (GR Kinases) desensitize activated G-protein coupled receptors (GPCRs), by phosphorylation of cytoplasmic loops or carboxyl-terminal tails of GPCRs. GRK2 is one of the 6 different GR kinases and is implicated in heart failure and diabetes.
This assay is sensitive and requires as low as 10 nM enzyme, in a total volume of 10 μL. In addition, the ATP concentration can be varied over a broad range, without interfering with the assay or changing the assay condition. […] Testing inhibitors routinely at both high and low ATP concentrations also enables identification of potential non-ATP competitive inhibitors.
Paroxetine was used as the reference compound in this assay.
Test compounds were dissolved in DMSO at 1 mM and were 3-fold serial diluted. The compound DMSO solutions were then added (100 nL) into a plate well using an acoustic dispenser. To each well was then added 20 nM GRK2 (5 μL) in assay buffer (20 mM HEPES, pH 7.5, 10 mM MgCl2, 0.001% Tween-20®). The plate was sealed and centrifuged at 1000 rpm for 1 min. The plate and wells containing a mixture of GRK2 and test compound were incubated at ambient temperature for 30 min (prior to initializing the enzymatic reaction).
Enzyme reactions were initiated by the addition of 4.9 μL Substrates/Eu-Ab mix to each well. […] Final concentrations of reagents in the assays were as follows: 20 mM HEPES, pH 7.5; 10 mM MgCl2; 0.001% Tween-20® (w/v); 30 or 600 μM ATP; 200 nM ULight-peptide; 4 nM Eu-Ab; 10 nM GRK2; and 1% DMSO.
The plates were sealed and centrifuged at 1000 rpm for 1 min. For reactions at low ATP concentration (30 μM), reaction mixtures were incubated at ambient temperature for 120 min. For reactions at high ATP concentration (600 μM), reaction mixtures were incubated at ambient temperature for 60 min.
The enzyme reactions were quenched by addition of 10 μL of 12 mM EDTA in 1× LANCE detection solution to each well. The plates were then incubated at ambient temperature for 30 min. Time-resolved fluorescence signal of reactions were read on an EnVision or PHERAstar plate reader with the following parameters: Excitation wavelength=337 nm; emission wavelength (donor)=620 nm; emission wavelength (acceptor)=665 nm.
The raw HTRF data were converted to % active as follows:
% active=(sample−NC)/(PC−NC)*100
where NC is the mean of negative control (reactions without GRK2), and PC is the mean of positive control (reactions with GRK2 but without inhibitor). IC50 values were determined from a 4-parameter fit, using the following equation:
Y=Bottom+(Top−Bottom)/(1+10^((Log IC50−X)*Hill slope))
where X=log10 of the compound concentration.

SMILES strings stand for the structures.

Consider `CC(=O)OCC(=O)Oc1cccc(CN2Cc3ccc(-c4cn[nH]c4)cc3C2=O)c1` [Compound 138], for which half-maximal inhibition (IC50) required 0.002 µM. As for `COc1cccc(CN2C(=O)c3cc(-c4cn[nH]c4)ccc3C23CCc2c(O)cccc23)c1` (stereo not drawn) [Compound 89, 4-hydroxy-2′-(3-methoxybenzyl)-5′-(1H-pyrazol-4-yl)-2,3-dihydrospiro[indene-1,1′-isoindolin]-3′-one], the figure is 0.144 µM; as for `COc1cccc(C(CCC(=O)O)N2Cc3ccc(-c4cn[nH]c4)cc3C2=O)c1` (stereo not drawn) [Compound 117, 4-(3-methoxyphenyl)-4-(1-oxo-6-(1H-pyrazol-4-yl)isoindolin-2-yl)butanoic acid], 0.404 µM; as for `COc1cccc(C(COCC(N)=O)N2Cc3ccc(-c4cn[nH]c4)cc3C2=O)c1` (stereo not drawn) [Compound 62, 2-(2-(3-Methoxyphenyl)-2-(1-oxo-6-(1H-pyrazol-4-yl)isoindolin-2-yl)ethoxy)acetamide], 0.007 µM.

With `COc1cccc([C@@H](C2CC2)N2Cc3ccc(-c4cn[nH]c4)cc3C2=O)c1` [Compound 96], inhibition was half-maximal at 0.012 µM (IC50). As for `CC(=O)Oc1cccc(CN2Cc3ccc(-c4cn[nH]c4)cc3C2=O)c1` [Compound 136], the figure is 0.014 µM; as for `COc1cccc(CN2C(=O)c3cc(-c4cn[nH]c4)ccc3C23CCC(O)C3)c1` (stereo not drawn) [Compound 46, 3-hydroxy-2′-(3-methoxybenzyl)-5′-(1H-pyrazol-4-yl)spiro[cyclopentane-1,1′-isoindolin]-3′-one], 0.007 µM. As for `COc1cccc([C@@H](C)N2Cc3c(cc(-c4cn[nH]c4)cc3-c3ccc(OC)nc3)C2=O)c1` [Compound 127, (R)-2-(1-(3-methoxyphenyl)ethyl)-4-(6-methoxypyridin-3-yl)-6-(1H-pyrazol-4-yl)isoindolin-1-one], the figure is 0.047 µM; as for `COc1cccc(CN2C(=O)c3cc(-c4cn[nH]c4)ccc3C2Cc2nn[nH]n2)c1` (stereo not drawn) [Compound 93, 3-((2H-tetrazol-5-yl)methyl)-2-(3-methoxybenzyl)-6-(1H-pyrazol-4-yl)isoindolin-1-one], 0.02 µM. In the case of `COc1cccc(CN2C(=O)c3cc(-c4cn[nH]c4)ccc3C23CCCC3)c1` [Compound 42, 2′-(3-methoxybenzyl)-5′-(1H-pyrazol-4-yl)spiro[cyclopentane-1,1′-isoindolin]-3′-one] it was 0.006 µM; in that of `O=C1c2cc(-c3cn[nH]c3)ccc2CN1Cc1cccc(Oc2ccccc2)c1` [Compound 103], 0.033 µM. Regarding `COc1cccc([C@@H](C)N2Cc3c(cc(-c4cn[nH]c4)cc3-c3ccc(C(F)(F)F)nc3)C2=O)c1` [Compound 145, (R)-2-(1-(3-methoxyphenyl)ethyl)-6-(1H-pyrazol-4-yl)-4-(6-(trifluoromethyl)pyridin-3-yl)isoindolin-1-one], the IC50 was determined as 0.285 µM. `O=C(O)COc1cccc(CN2Cc3ccc(-c4cn[nH]c4)cc3C2=O)c1` [Compound 55] gave an IC50 of 0.011 µM. In the case of `COc1cccc(C(COCC(=O)O)N2Cc3ccc(-c4cn[nH]c4)cc3C2=O)c1` (stereo not drawn) [Compound 60, 2-(2-(3-methoxyphenyl)-2-(1-oxo-6-(1H-pyrazol-4-yl)isoindolin-2-yl)ethoxy)acetic acid] it was 0.017 µM; in that of `COc1cccc(CN2Cc3cc(F)c(-c4cn[nH]c4)cc3C2=O)c1` [Compound 35, 5-fluoro-2-[(3-methoxyphenyl)methyl]-6-(1H-pyrazol-4-yl)isoindolin-1-one], 0.005 µM; in that of `CCOc1cccc([C@@H](C)N2Cc3ccc(-c4ccnc5[nH]ccc45)cc3C2=O)c1` [Compound 167], more than 20 µM. In the case of `COc1cccc([C@@H](C)N2Cc3c(cc(-c4cn[nH]c4)cc3-c3cncnc3)C2=O)c1` [Compound 130, 2-[(1R)-1-(3-methoxyphenyl)ethyl]-6-(1H-pyrazol-4-yl)-4-pyrimidin-5-yl-isoindolin-1-one], the IC50 was less than 0.005 µM. In the case of `O=C(N[C@H]1C[C@H]2CC[C@@H]1C2)c1cccc(CN2Cc3ccc(-c4cn[nH]c4)cc3C2=O)c1` [Compound 128] it was less than 0.005 µM.

(Values after patent US20220009906A1, “ISOINDOLIN-1-ONE DERIVATIVES USEFUL AS GRK2 INHIBITORS” (priority 2020, published 2022).)
